Source: US20050260126A1 (priority 2002, published 2005)
pIC50: −log10 of the molar value. Counter-ions that a name gives are not always drawn.

How the values were obtained:
[1] = Slc:ICR, mouse, not told, iv
[2] = tested on: ScN2a cells; conditions: for Concentration of inhibiting cell proliferation TC: mouse
[3] = tested on: abnormal prion proteins in ScN2a cells with persistent infection of scrapie; assay: cells; format: cell-based, mouse; conditions: for pIC50: Mus musculus, ScN2a, 96 h, read-out: Inhibitory effects on producing abnormal prion protein IC50; for Inhibitory effects on producing abnormal prion proteins (in words): ScN2a cells
[4] = in vivo; conditions: male, Crj:CD1, mouse, iv

CN(C)c1ccc(-c2cn3cc(I)ccc3n2)cc1 [BF-130, 2-(4-dimethylamino) phenyl-6-iodoimidazo-[1,2-a]pyridine]
Permeability into the brain: content in Brain [1]: 7.3 % ID/g or ml | Permeability into the brain: content in Plasma [1]: 2.4 % ID/g or ml | TC and safety concentration margin (in words) [2]: higher TCs, therefore higher safety concentration margins | Concentration of inhibiting cell proliferation TC [2]: 100 µM | pIC50 [3]: 9.00 | Inhibitory effects on producing abnormal prion proteins (in words) [3]: highly inhibitory effects

Cc1nc(/C=C/c2ccc(N(C)C)cc2)oc1C [BF-137, 2-[2-(4-dimethylamino-phenyl)ethenyl]-4-5-dimethyloxazole]
Permeability into the brain: content in Brain [1]: 6.5 % ID/g or ml | Permeability into the brain: content in Plasma [1]: 2.9 % ID/g or ml | Concentration of inhibiting cell proliferation TC [2]: 100 µM | pIC50 [3]: 7.00 | MTD [4]: ≥ 10 mg/kg

CN(C)c1ccc(/C=C/c2cccs2)cc1 [BF-141, 2-[2-(4-dimethylamino-phenyl)ethenyl]thiophene]
Concentration of inhibiting cell proliferation TC [2]: 10 µM | pIC50 [3]: 9.00 | Inhibitory effects on producing abnormal prion proteins (in words) [3]: highly inhibitory effects | MTD [4]: 3 to 10 mg/kg

CN(C)c1ccc(-c2nc3ccccc3s2)cc1 [BF-150, 2-(4-dimethylamino-phenyl) benzothiazole]
Permeability into the brain: content in Brain [1]: 11.2 % ID/g or ml | Permeability into the brain: content in Plasma [1]: 1.5 % ID/g or ml | Concentration of inhibiting cell proliferation TC [2]: 10 µM | pIC50 [3]: 9.00 | Inhibitory effects on producing abnormal prion proteins (in words) [3]: highly inhibitory effects

CN(C)c1ccc2cc(-c3nc4cc(F)ccc4[nH]3)ccc2c1 [BF-153, 5-fluoro-2-(6-dimethyl-aminonaphthalen-2-yl)benzimidazole]
Concentration of inhibiting cell proliferation TC [2]: 10 µM | pIC50 [3]: 9.00 | Inhibitory effects on producing abnormal prion proteins (in words) [3]: highly inhibitory effects | MTD [4]: 3 to 10 mg/kg

CNc1ccc(-c2ccc3ccccc3n2)cc1 [BF-158, 2-[(4-methylamino)-phenyl]quinoline]
Permeability into the brain: content in Brain [1]: 9.7 % ID/g or ml | Permeability into the brain: content in Plasma [1]: 1.8 % ID/g or ml | Concentration of inhibiting cell proliferation TC [2]: 100 µM | pIC50 [3]: 8.00

Nc1ccc(-c2ccc3ccccc3n2)cc1 [BF-170, 2-[(4-amino)phenyl]-quinoline]
Permeability into the brain: content in Brain [1]: 9.1 % ID/g or ml | Permeability into the brain: content in Plasma [1]: 1.4 % ID/g or ml | Concentration of inhibiting cell proliferation TC [2]: 100 µM | pIC50 [3]: 7.00

Nc1ccc(/C=C/c2nc3cc(I)ccc3o2)cc1 [BF-173, 2-(4-amino)styryl-5-iodobenzoxazole]
Concentration of inhibiting cell proliferation TC [2]: 100 µM | pIC50 [3]: 7.00 | MTD [4]: ≥ 10 mg/kg

Nc1ccc(/C=C/c2ccc3ccccc3n2)cc1 [BF-177, 2-[2-(4-aminophenyl)ethenyl]quinoline]
Permeability into the brain: content in Brain [1]: 8.2 % ID/g or ml | Permeability into the brain: content in Plasma [1]: 1.6 % ID/g or ml | MTD [4]: ≥ 10 mg/kg

CC1=NN(c2ccc(/C=C/c3nc4ccccc4o3)cc2)C(=O)C1 [BF-181, 2-[2-[4-(3-methyl-5-oxo-2-pyrrozolin-1-yl)-phenyl]ethenyl]benzoxazole]
MTD [4]: 3 to 10 mg/kg

CNc1ccc(/C=C/C=C/c2nc3ccccc3o2)cc1 [BF-185, 2-[[4-(4-methylamino)-phenyl]-1,3-butadienyl]-benzoxazole]
Permeability into the brain: content in Brain [1]: 3.9 % ID/g or ml | Permeability into the brain: content in Plasma [1]: 1.0 % ID/g or ml | MTD [4]: ≥ 10 mg/kg

CNc1ccc(/C=C/C=C/c2nc3ccccc3[nH]2)cc1 [BF-188, 2-[[4-(4-methylamino)-phenyl]-1,3-butadienyl]-benzimidazole]
Permeability into the brain: content in Brain [1]: 4.8 % ID/g or ml | Permeability into the brain: content in Plasma [1]: 1.7 % ID/g or ml | MTD [4]: ≥ 10 mg/kg

CNc1ccc(/C=C/C=C/C=C/c2ccc3ccccc3n2)cc1 [BF-189, 1-(4-methylamino-phenyl)-6-(2-quinolyl)-1,3,5-hexatriene]
Concentration of inhibiting cell proliferation TC [2]: 100 µM | pIC50 [3]: 7.00 | MTD [4]: ≥ 10 mg/kg

Clc1ccc(/C=C/c2nc3ccccc3o2)cc1 [BF-191, 2-[2-(4-chlorophenyl)ethenyl]benzoxazole]
Permeability into the brain: content in Brain [1]: 12.0 % ID/g or ml | Permeability into the brain: content in Plasma [1]: 2.1 % ID/g or ml | Concentration of inhibiting cell proliferation TC [2]: >10 µM | pIC50 [3]: 8.40

CN(C)c1ncc(/C=C/c2nc3ccccc3s2)s1 [BF-196, 2-[2-(2-dimethylamino-thiazol-5-yl)ethenyl]-benzothiazole]
Permeability into the brain: content in Brain [1]: 19 % ID/g or ml | Permeability into the brain: content in Plasma [1]: 1.8 % ID/g or ml | Concentration of inhibiting cell proliferation TC [2]: >10 µM | pIC50 [3]: 7.80

CNc1ccc(C=Cc2ccc3cc(I)ccc3n2)c(O)c1 [BF-199, 2-[2-(2-hydroxyl-4-methylaminophenyl)-ethenyl]-6-iodoquinoline]
Concentration of inhibiting cell proliferation TC [2]: >10 µM | pIC50 [3]: 9.10 | MTD [4]: ≥ 10 mg/kg

Cc1nc(/C=C/c2ccc(N(C)C)cc2O)oc1CO [BF-200, 2-[2-[(4-dimethylamino-2-hydroxy)phenyl]-ethenyl]-5-hydroxy methyl-4-methyloxazole]
MTD [4]: ≥ 10 mg/kg

CN(C)c1ccc(/C=C/c2nc3ccccc3o2)c(O)c1 [BF-206, 2-(4-dimethylamino-2-hydroxystyryl)-benzoxazole]
Concentration of inhibiting cell proliferation TC [2]: >10 µM | pIC50 [3]: 8.70 | MTD [4]: ≥ 10 mg/kg

CNc1ccc(/C=C/c2nc3ccccc3o2)c(N)c1 [BF-207, 2-(2-amino-4-N-methyl-aminostyryl)benzoxazole]
MTD [4]: ≥ 10 mg/kg

Cc1nc(/C=C/c2ccc(N(C)C)cc2O)oc1COCCF [BF-210]
MTD [4]: ≥ 10 mg/kg

Nc1ccc(-c2ccc3cc(CF)ccc3n2)c(O)c1 [BF-213, 2-[(4-amino-2-hydroxy)-phenyl]-6-(fluoro-methyl)quinoline]
Concentration of inhibiting cell proliferation TC [2]: 10 µM | pIC50 [3]: 8.70 | MTD [4]: ≥ 10 mg/kg

Cc1nc(/C=C/c2cnc(N(C)C)s2)oc1C [BF-214, 2-(dimethylamino)-5-[2-(4,5-dimethyloxazol-2-yl)ethenyl]thiazole]
Permeability into the brain: content in Brain [1]: 9.0 % ID/g or ml | Permeability into the brain: content in Plasma [1]: 2.1 % ID/g or ml | MTD [4]: ≥ 10 mg/kg

CN(C)c1cnc(/C=C/c2nc3ccccc3o2)o1 [BF-215, 2-[2-(5-dimethylamino-oxazol-2-yl)-ethenyl]-benzoxazole]
Permeability into the brain: content in Brain [1]: 8.8 % ID/g or ml | Permeability into the brain: content in Plasma [1]: 2.5 % ID/g or ml | MTD [4]: ≥ 10 mg/kg

CN(C)c1ncc(-c2nc3ccccc3o2)s1 [BF-225, 2-(2-dimethylamino-thiazol-5-yl)benzoxazole]
MTD [4]: ≥ 10 mg/kg

Cc1nc(/C=C/C=C/c2ccc(N(C)C)cc2)oc1C [BF-228, 2-[[4-(4-dimethylamino)-phenyl]-1,3-butadienyl]-3,4-dimethyloazole]
Concentration of inhibiting cell proliferation TC [2]: >10 µM | pIC50 [3]: 7.80 | MTD [4]: ≥ 10 mg/kg

CN(C)c1ncc(/C=C/c2nc3ccccc3o2)o1 [BF-230, 2-[2-(2-dimethylamino-oxazol-5yl)-ethenyl]benzoxazole]
MTD [4]: ≥ 10 mg/kg

CN(C)c1ncc(/C=C/C=C/c2nc3ccccc3[nH]2)s1 [BF-231, 2-[4-(2-dimethylamino-thiazol-5-yl)-1,3-butadienyl]benzimidazole]
Concentration of inhibiting cell proliferation TC [2]: >10 µM | pIC50 [3]: 8.80 | MTD [4]: ≥ 10 mg/kg

c1ccc2cc(-c3cn4ccccc4n3)ccc2c1 [Compound N-437, 2-(2-naphthyl)imidazo-[1,2-a]pyridine hydrobromide]
Concentration of inhibiting cell proliferation TC [2]: 100 µM | pIC50 [3]: 9.00 | MTD [4]: ≥ 10 mg/kg

Ic1ccc2nc(-c3ccccc3)cn2c1 [Compound N-469, 2-phenyl-6-iodo-imidazo[1,2-a]pyridine]
Concentration of inhibiting cell proliferation TC [2]: ≧100 μM | pIC50 [3]: 7.00

Clc1ccc2nc(-c3cccs3)cn2c1 [Compound N-471, 2-(2-thienyl)-6-chloro imidazo[1,2-a]pyridine]
Concentration of inhibiting cell proliferation TC [2]: ≧100 μM | pIC50 [3]: 6.00

Clc1ccc2nc(-c3ccc(Br)s3)cn2c1 [Compound N-472, 2-(5-bromo-2-thienyl)-6-chloroimidazo[1,2-a]pyridine]
Concentration of inhibiting cell proliferation TC [2]: 100 µM | pIC50 [3]: 8.00

Cc1ccc2nc(-c3sc(-c4ccccc4)nc3C)cn2c1 [Compound N-473, 2-(2-phenyl-4-methylthiazol-5-yl)-6-methyl-imidazo[1,2-a]pyridine]
Concentration of inhibiting cell proliferation TC [2]: 100 µM | pIC50 [3]: 6.00

Nc1cccc(-c2cn3cc(Cl)ccc3n2)c1 [Compound N-475, 2-(3-aminophenyl)-6-chloroimidazo[1,2-a]pyridine]
Concentration of inhibiting cell proliferation TC [2]: 100 µM | pIC50 [3]: 7.00

Cc1ccc2nc(-c3ccc(NC(=O)c4ccc(Cl)cc4Cl)cc3)sc2c1 [HT-040, 4-(6-methylbenzothiazol-2-yl)-N-(2,4-dichlorobenzoyl)aniline]
Concentration of inhibiting cell proliferation TC [2]: >10 µM | pIC50 [3]: 8.00

Cc1ccc2nc(-c3ccc(NC(=O)c4ccc(Cl)cc4)cc3)sc2c1 [HT-041, 4-(6-methylbenzothiazol-2-yl)-N-(4-chloro-benzoyl)aniline]
Concentration of inhibiting cell proliferation TC [2]: >10 µM | pIC50 [3]: 8.00

Cc1ccc2nc(-c3ccc(NC(=O)c4cccs4)cc3)sc2c1 [HT-042, 4-(6-methylbenzothiazol-2-yl)-N-(thio-phen-2-carbonyl)aniline]
Concentration of inhibiting cell proliferation TC [2]: >100 µM | pIC50 [3]: 8.00

Cc1ccc2nc(-c3ccc(NC(=O)Nc4cccc(Cl)c4)cc3)sc2c1 [HT-043, 4-(6-methylbenzothiazol-2-yl)-N-(3-chlorophenyl-aminocarbonyl)aniline]
Concentration of inhibiting cell proliferation TC [2]: >10 µM | pIC50 [3]: 7.00

CCN(CC)c1ccc2cc(-c3nc4ccccc4[nH]3)c(=O)oc2c1 [SA-272, 2-(7-diethylamino-coumarin-3-yl)-benzimidazole]
Concentration of inhibiting cell proliferation TC [2]: 100 µM | pIC50 [3]: 6.00
